According to publication PMC12664493, “Asparagine endopeptidase (AEP) inhibitor formulation via zein-based nanoparticle improves the therapeutic efficacy toward Alzheimer's disease” (Neurotherapeutics, 2025):
Read-outs that look alike come from different tables or passages of the source.

How the values were obtained:
[1] = PAMPA-BBB permeability assay; type: in vitro ADME; settings: read-out: Permeability-PAMPA-BBB Pe
[2] = target: hERG K+ channel (Homo sapiens, UniProt Q12809); assay: hERG inhibition assay
[3] = target: T1, BCRP (Homo sapiens, UniProt Q9UNQ0); assay: Caco-2-BCRP assay with and without Ko143; type: in vitro ADME; settings: for Papp A→B / Papp B→A / recovery: human
T1 construct: endogenous in cells; host or cells: Caco-2
T1 sequence (Q9UNQ0 1-655): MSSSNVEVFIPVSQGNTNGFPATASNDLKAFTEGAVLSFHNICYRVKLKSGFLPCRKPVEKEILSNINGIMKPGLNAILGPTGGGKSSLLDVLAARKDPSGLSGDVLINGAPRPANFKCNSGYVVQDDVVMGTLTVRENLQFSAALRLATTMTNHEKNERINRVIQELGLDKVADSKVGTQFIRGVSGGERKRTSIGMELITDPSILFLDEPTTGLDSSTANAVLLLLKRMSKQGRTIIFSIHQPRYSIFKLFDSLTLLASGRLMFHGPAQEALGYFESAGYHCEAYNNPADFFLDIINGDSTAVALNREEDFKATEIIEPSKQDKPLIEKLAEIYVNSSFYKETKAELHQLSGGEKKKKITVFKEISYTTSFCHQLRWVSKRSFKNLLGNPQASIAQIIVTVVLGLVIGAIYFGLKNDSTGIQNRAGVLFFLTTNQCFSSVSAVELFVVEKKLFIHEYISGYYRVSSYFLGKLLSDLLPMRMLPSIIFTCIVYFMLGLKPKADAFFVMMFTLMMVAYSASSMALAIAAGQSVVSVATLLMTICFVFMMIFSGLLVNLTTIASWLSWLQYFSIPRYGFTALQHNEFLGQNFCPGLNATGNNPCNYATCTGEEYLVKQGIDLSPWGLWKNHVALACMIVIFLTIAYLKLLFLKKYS

[4] = Plasma and brain concentrations after acute oral treatment of 3xTg mice; type: in vivo; settings: both sexes, mouse
From the text: Blood and brain tissues were collected at 0, 0.08, 0.25, 0.5, 1, 2, 4, and 8 h post-administration.

[5] = target: T2, AEP (Mus musculus, UniProt O89017); assay: Chronic one-month oral treatment of 3xTg mice: AEP activation and substrate cleavage; type: in vivo; settings: 7.5 mg/kg P.O. daily
T2 construct: from tissue; host or cells: brain / hippocampus of 3xTg mice
T2 sequence (O89017 18-435): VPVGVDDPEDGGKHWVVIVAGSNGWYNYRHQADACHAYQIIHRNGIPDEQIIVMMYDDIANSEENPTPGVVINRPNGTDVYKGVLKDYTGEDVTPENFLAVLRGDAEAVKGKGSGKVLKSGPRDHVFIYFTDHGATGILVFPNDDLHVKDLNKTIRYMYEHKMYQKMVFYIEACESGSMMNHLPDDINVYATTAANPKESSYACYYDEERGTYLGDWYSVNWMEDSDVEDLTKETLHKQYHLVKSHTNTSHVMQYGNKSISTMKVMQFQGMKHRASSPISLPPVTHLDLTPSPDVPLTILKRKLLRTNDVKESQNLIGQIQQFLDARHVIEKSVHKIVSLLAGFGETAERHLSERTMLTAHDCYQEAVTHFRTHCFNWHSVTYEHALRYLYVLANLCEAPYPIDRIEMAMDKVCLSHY

[6] = tested on: Aβ plaques; assay: Aβ PET (18F-AV45) in 3xTg mice after chronic treatment; type: in vivo, mouse; settings: 7.5 mg/kg P.O. daily, one month
From the text: Blood and brain tissues were collected at 0, 0.08, 0.25, 0.5, 1, 2, 4, and 8 h post-administration. For acute pharmacodynamic (PD) assessments, male and female 3xTg mice received oral doses of NP-11a-isopropyl at 7.5 mg/kg or 15 mg/kg, and blood and brain samples were collected 2 h after treatment.
Mice were maintained under isoflurane inhalation anesthesia during all procedures to ensure stable physiological conditions for radiochemical administration, imaging, and data processing. PET imaging was conducted using a high-resolution small-animal scanner (microPET; spatial resolution: 1.0 mm). Following intravenous administration of 10–15 MBq of ^18F-florbetapir (AV45) in 100 μL saline via the tail vein, 20-min volumetric brain emission scans were acquired. Image reconstruction was performed using ordered-subset expectation maximization (OSEM) to optimize spatial resolution and signal-to-noise ratios. For quantitative analysis, standardized uptake value ratios (SUVRs) were calculated by normalizing 18F-AV45 uptake in target regions to the cerebellar reference tissue. A predefined volumetric region of interest (VOI) template was applied to ensure consistent anatomical localization across subjects. SUVR data were statistically analyzed using Amide 1.0.4–1 (San Diego, CA, USA), with results reported for cortical and subcortical regions implicated in amyloid pathology.

[7] = tested on: Aβ42; assay: Aβ ELISA of brain tissue of 3xTg mice; type: in vivo, mouse; settings: 7.5 mg/kg P.O. daily, one month

Sequence of hERG K+ channel (Q12809 whole entry): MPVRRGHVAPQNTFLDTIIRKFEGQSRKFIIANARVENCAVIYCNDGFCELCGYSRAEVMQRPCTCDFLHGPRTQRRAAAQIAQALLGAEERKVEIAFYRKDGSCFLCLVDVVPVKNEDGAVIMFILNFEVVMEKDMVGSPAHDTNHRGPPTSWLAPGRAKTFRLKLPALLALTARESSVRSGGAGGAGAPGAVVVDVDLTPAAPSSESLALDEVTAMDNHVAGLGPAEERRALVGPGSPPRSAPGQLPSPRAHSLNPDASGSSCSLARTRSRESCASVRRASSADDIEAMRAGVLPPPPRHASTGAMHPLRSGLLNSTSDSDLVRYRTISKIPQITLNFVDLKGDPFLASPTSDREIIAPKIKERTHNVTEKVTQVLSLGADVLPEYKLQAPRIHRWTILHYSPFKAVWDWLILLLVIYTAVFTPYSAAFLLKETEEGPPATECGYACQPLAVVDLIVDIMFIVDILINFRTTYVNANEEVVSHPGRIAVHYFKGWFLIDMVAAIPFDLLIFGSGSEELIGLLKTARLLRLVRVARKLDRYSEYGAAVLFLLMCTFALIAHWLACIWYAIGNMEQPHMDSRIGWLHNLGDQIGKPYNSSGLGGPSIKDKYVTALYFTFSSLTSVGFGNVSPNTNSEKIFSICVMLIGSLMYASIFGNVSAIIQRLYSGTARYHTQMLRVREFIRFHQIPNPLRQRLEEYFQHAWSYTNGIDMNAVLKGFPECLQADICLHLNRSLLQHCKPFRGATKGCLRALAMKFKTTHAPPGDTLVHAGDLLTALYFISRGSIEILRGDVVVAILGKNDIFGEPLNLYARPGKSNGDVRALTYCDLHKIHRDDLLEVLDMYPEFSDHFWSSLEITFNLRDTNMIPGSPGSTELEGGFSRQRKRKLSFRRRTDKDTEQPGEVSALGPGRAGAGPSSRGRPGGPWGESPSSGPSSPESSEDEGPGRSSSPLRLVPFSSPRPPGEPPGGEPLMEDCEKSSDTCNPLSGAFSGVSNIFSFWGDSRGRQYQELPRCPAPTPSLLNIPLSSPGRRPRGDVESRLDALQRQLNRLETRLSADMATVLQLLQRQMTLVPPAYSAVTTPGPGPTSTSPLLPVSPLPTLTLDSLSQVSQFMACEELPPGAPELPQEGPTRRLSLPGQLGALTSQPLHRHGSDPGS

Papp [1]: 8.4 ×10⁻⁶ cm/s
BCRP substrate classification [3]: not a significant substrate of BCRP
Papp A→B ([3]; Caco-2, with Ko143 2 μM): 15.7 ×10⁻⁶ cm/s
Papp B→A ([3]; Caco-2, with Ko143 2 μM): 35.7 ×10⁻⁶ cm/s
recovery ([3]; Caco-2, with Ko143 2 μM, Ko143 2 μM, read-out: Recovery (%) A→B): 107%
recovery ([3]; Caco-2, with Ko143 2 μM, Ko143 2 μM, read-out: Recovery (%) B→A): 98.5%
Papp A→B ([3]; Caco-2, Ko143 0 μM): 12.1 ×10⁻⁶ cm/s
Papp B→A ([3]; Caco-2, Ko143 0 μM): 35.7 ×10⁻⁶ cm/s
recovery ([3]; Caco-2, Ko143 0 μM, read-out: Recovery (%) A→B): 91.8%
recovery ([3]; Caco-2, Ko143 0 μM, read-out: Recovery (%) B→A): 104%
concentration at 2 h ([4]; brain, 7.5 mg/kg, 11a-isopropyl level in the brain, P.O. 7.5 mg/kg): 14.4 ng/mL
concentration at 2 h ([4]; brain, 7.5 mg/kg, P.O. 7.5 mg/kg, read-out: Concentration in brain, Brain Mean): 14.4 ng/g
concentration at 2 h ([4]; brain, 7.5 mg/kg, P.O. 7.5 mg/kg, read-out: Concentration in brain, Brain Sample (single animal)): 14.4 ng/g
concentration at 2 h ([4]; brain, 15 mg/kg, P.O. 15 mg/kg, read-out: Concentration in brain, Brain Sample (single animal)): 39.3 ng/g
concentration at 2 h ([4]; plasma, 7.5 mg/kg, P.O. 7.5 mg/kg, read-out: Concentration in plasma, Serum Mean): 74.9 ng/mL
AEP activation, APP N585 and Tau N368 fragmentation, hippocampus immunoblotting [5]: gradually reduced
SMILES: CC(C)Nc1nnc(Nc2cc(CO)c(N3CCOCC3)c3nonc23)s1 [11a-isopropyl]
IC50 [2]: > 10 µM
Aβ PET (18F-AV45) SUVR [6]: significantly decreasing the PET signals
Aβ42 level in brain, ELISA [7]: significantly reduced
